ChEMBL document CHEMBL3885861, “Open TG-GATES”

Species: Rattus norvegicus
Assay: Open TG-GATES - Regimen: Single
Assay type: toxicity, organism-based, Sprague-Dawley
Set-up: regimen Single, gender Male, age 6 weeks
Settings: in vivo, po, 150 mg/kg, route gavage, dose level High; for APTT / Bas / Eos / Fbg / Hb / Ht / Lym / MCH / MCHC / MCV / Mono / Neu / PT / Plat / RBC / Ret / WBC: tissue Blood; for KIDNEY_L / KIDNEY_R / KIDNEY_TOTAL: tissue Kidney; for LIVER: tissue Liver; for A/G / ALP / ALT / AST / BUN / CRE / Ca / Cl / DBIL / GLC / IP / K / LDH / Na / PL / RALB / TBIL / TC / TG / TP / gamma-GTP: tissue Plasma

## CC1=C(CC(=O)O)c2cc(F)ccc2/C1=C\c1ccc([S+](C)[O-])cc1 (configuration not stated)
3 h
  TERMINAL_BW: 202.5 g
  APTT: 18.7 s
  Bas: 0%
  Eos: 0.8%
  Fbg: 270.6 mg/dL
  Hb: 12.9 g/dL
  Ht: 38.9%
  Lym: 76.4%
  MCH: 21 pg
  MCHC: 33.2%
  MCV: 63.4 fL
  Mono: 3%
  Neu: 18.8%
  PT: 14.3 s
  Plat: 126.3 x10_4/uL
  RBC: 615.4 x10_4/ul
  Ret: 7.8%
  WBC: 82 x10_2/uL
  KIDNEY_L: 0.9 g
  KIDNEY_R: 0.9 g
  KIDNEY_TOTAL: 1.8 g
  LIVER: 8.9 g
  A/G: 1
  ALP: 1334 IU/L
  ALT: 39.2 IU/L
  AST: 71.2 IU/L
  BUN: 10.4 mg/dL
  CRE: 0.2 mg/dL
  Ca: 10.7 mg/dL
  Cl: 103.8 meq/L
  DBIL: 0.006 mg/dL
  GLC: 161.2 mg/dL
  IP: 8.1 mg/dL
  K: 4 meq/L
  LDH: 67.8 IU/L
  Na: 139.8 meq/L
  PL: 144.4 mg/dL
  RALB: 2.5 g/dL
  TBIL: 0.044 mg/dL
  TC: 75.6 mg/dL
  TG: 71.4 mg/dL
  TP: 5.2 g/dL
  gamma-GTP: 1 IU/L
6 h
  TERMINAL_BW: 201.1 g
  APTT: 17.9 s
  Bas: 0%
  Eos: 0.4%
  Fbg: 280 mg/dL
  Hb: 13.3 g/dL
  Ht: 40.9%
  Lym: 65.8%
  MCH: 21 pg
  MCHC: 32.7%
  MCV: 64.4 fL
  Mono: 3.6%
  Neu: 29.2%
  PT: 14 s
  Plat: 133.5 x10_4/uL
  RBC: 635 x10_4/ul
  Ret: 8.1%
  WBC: 68.2 x10_2/uL
  KIDNEY_L: 0.9 g
  KIDNEY_R: 1 g
  KIDNEY_TOTAL: 1.9 g
  LIVER: 8.2 g
  A/G: 1
  ALP: 1506 IU/L
  ALT: 40 IU/L
  AST: 71.4 IU/L
  BUN: 10.4 mg/dL
  CRE: 0.2 mg/dL
  Ca: 10.7 mg/dL
  Cl: 104.8 meq/L
  DBIL: 0.01 mg/dL
  GLC: 168.4 mg/dL
  IP: 9.3 mg/dL
  K: 4.1 meq/L
  LDH: 77.6 IU/L
  Na: 141.2 meq/L
  PL: 135.4 mg/dL
  RALB: 2.6 g/dL
  TBIL: 0.04 mg/dL
  TC: 70.6 mg/dL
  TG: 33 mg/dL
  TP: 5.3 g/dL
  gamma-GTP: 1.4 IU/L
9 h
  TERMINAL_BW: 200.1 g
  APTT: 16.2 s
  Bas: 0%
  Eos: 1%
  Fbg: 294.8 mg/dL
  Hb: 13.3 g/dL
  Ht: 40.5%
  Lym: 67.4%
  MCH: 20.8 pg
  MCHC: 32.8%
  MCV: 63.5 fL
  Mono: 3.2%
  Neu: 28%
  PT: 13.8 s
  Plat: 122 x10_4/uL
  RBC: 638 x10_4/ul
  Ret: 7.8%
  WBC: 50.2 x10_2/uL
  KIDNEY_L: 0.9 g
  KIDNEY_R: 0.9 g
  KIDNEY_TOTAL: 1.8 g
  LIVER: 7.6 g
  A/G: 1
  ALP: 1365 IU/L
  ALT: 37.4 IU/L
  AST: 68.8 IU/L
  BUN: 9.8 mg/dL
  CRE: 0.2 mg/dL
  Ca: 10.4 mg/dL
  Cl: 107 meq/L
  DBIL: 0.014 mg/dL
  GLC: 169.4 mg/dL
  IP: 10.1 mg/dL
  K: 4.2 meq/L
  LDH: 72 IU/L
  Na: 141.4 meq/L
  PL: 127.8 mg/dL
  RALB: 2.6 g/dL
  TBIL: 0.046 mg/dL
  TC: 68.4 mg/dL
  TG: 40 mg/dL
  TP: 5.2 g/dL
  gamma-GTP: 1 IU/L
24 h
  TERMINAL_BW: 203.3 g
  APTT: 15.4 s
  Bas: 0%
  Eos: 0.4%
  Fbg: 378 mg/dL
  Hb: 10.3 g/dL
  Ht: 32%
  Lym: 54.4%
  MCH: 20.7 pg
  MCHC: 32.3%
  MCV: 64 fL
  Mono: 2.4%
  Neu: 42%
  PT: 13 s
  Plat: 78.4 x10_4/uL
  RBC: 500.2 x10_4/ul
  Ret: 8.5%
  WBC: 96.3 x10_2/uL
  KIDNEY_L: 0.9 g
  KIDNEY_R: 0.9 g
  KIDNEY_TOTAL: 1.8 g
  LIVER: 9.1 g
  A/G: 0.9
  ALP: 747.4 IU/L
  ALT: 30.2 IU/L
  AST: 42.6 IU/L
  BUN: 24 mg/dL
  CRE: 0.2 mg/dL
  Ca: 9.3 mg/dL
  Cl: 105.2 meq/L
  DBIL: 0.008 mg/dL
  GLC: 162.4 mg/dL
  IP: 9.8 mg/dL
  K: 5.1 meq/L
  LDH: 58.8 IU/L
  Na: 137.2 meq/L
  PL: 117 mg/dL
  RALB: 1.5 g/dL
  TBIL: 0.024 mg/dL
  TC: 67.4 mg/dL
  TG: 126.6 mg/dL
  TP: 3.2 g/dL
  gamma-GTP: 0.8 IU/L
